Assay results reported in patent publication US10961215B2, “N-aryl and N-heteroaryl piperidine derivatives as liver X receptor beta agonists, compositions, and their use” (Merck Sharp & Dohme Corp., priority 2016, dated 2021).

Experiments:
[1] = target: T1, GST tagged LXRbeta LBD (ligand binding domain) (Homo sapiens, UniProt P55055); test: LanthaScreen TR-FRET Liver X Receptor Coactivator Assay, LXR beta-LBD (co-activator recruitment; IP and % Emax relative to T0901317); type: biochemical; conditions: for EC50: Inflection Point of co-activator recruitment, LXR beta-LBD, TR-FRET; for Emax: read-out: LXR beta actiivty at max dose (%)
T1 construct: purchased Invitrogen pv4658.pps
T1 sequence (P55055 222-460 limits assumed): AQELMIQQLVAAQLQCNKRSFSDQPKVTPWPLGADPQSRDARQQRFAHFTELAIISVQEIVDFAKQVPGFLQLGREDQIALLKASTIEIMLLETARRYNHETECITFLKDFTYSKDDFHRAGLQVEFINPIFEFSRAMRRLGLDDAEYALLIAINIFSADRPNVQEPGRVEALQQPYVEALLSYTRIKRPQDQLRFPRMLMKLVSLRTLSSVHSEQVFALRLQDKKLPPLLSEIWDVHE
Summary of the method: (§1)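 Readout is time-resolved FRET between a terbium anti-GST antibody bound to the tagged LBD and a fluorescein-labelled coactivator peptide recruited on ligand binding. Samples are incubated at room temperature before reading, and efficacy is expressed against T0901317.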

[2] = target: T2, GST tagged LXRalpha LBD (ligand binding domain) (Homo sapiens, UniProt Q13133); test: LanthaScreen TR-FRET Liver X Receptor Coactivator Assay, LXR alpha-LBD (co-activator recruitment; IP and % Emax relative to T0901317); type: biochemical; conditions: for LXR alpha IP (nM) / EC50: Inflection Point of co-activator recruitment, LXR alpha-LBD, TR-FRET; for Emax: efficacy at max dose in relation to reference T0901317, LXR alpha-LBD, read-out: LXR alpha actiivty at max dose (%)
T2 construct: purchased Invitrogen pv4655
T2 sequence (Q13133 209-447 limits assumed): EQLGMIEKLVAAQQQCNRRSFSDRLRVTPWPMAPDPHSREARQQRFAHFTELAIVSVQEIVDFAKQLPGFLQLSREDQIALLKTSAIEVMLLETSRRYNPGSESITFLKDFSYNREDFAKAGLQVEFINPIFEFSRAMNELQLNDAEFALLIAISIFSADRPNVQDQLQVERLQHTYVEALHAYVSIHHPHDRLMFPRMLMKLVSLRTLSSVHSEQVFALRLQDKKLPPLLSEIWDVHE
Summary of the method: as §1

[3] = efficacy at max dose in relation to reference T0901317, LXR beta-LBD

EC50 [1] [nM]	Emax [1, 3] [%]	LXR alpha IP (nM) [2]	Emax [2] [%]	EC50 [2] [nM]	LXR beta actiivty at max dose (%) [1, 3] [%]	Structure (SMILES)
420	43	No IP	4			COc1cccc([C@@](O)(C(=O)N(C)CCCC2CCN(c3ccc(C(=O)N4CC[C@@H](CO)C4)c(Cl)n3)CC2)C(F)(F)F)c1 [Example 2-7, (R)-N-(3-(1-(6-chloro-5-((R)-3-(hydroxymethyl)pyrrolidine-1-carbonyl)pyridin-2-yl)piperidin-4-yl)propyl)-3,3,3-trifluoro-2-hydroxy-2-(3-methoxyphenyl)-N-methylpropanamide]
179	54	No IP	1			Cc1cccc([C@](O)(C(=O)N(C)CCCC2CCN(c3ccc(C(=O)N(C)C)c(Cl)n3)CC2)C(F)(F)F)c1 [Example 1-16, (S)-2-chloro-N,N-dimethyl-6-(4-(3-(3,3,3-trifluoro-2-hydroxy-N-methyl-2-m-tolylpropanamido)propyl)piperidin-1-yl)nicotinamide]
403	65	No IP	12			CN(C)C(=O)c1ccc(N2CCC([C@@H]3C[C@H]3CN(C)C(=O)[C@@](O)(c3ccccc3)C(F)(F)F)CC2)cc1Cl [Example 15-20, 2-chloro-N,N-dimethyl-4-(4-((1S,2R)-2-(((S)-3,3,3-trifluoro-2-hydroxy-N-methyl-2-phenylpropanamido)methyl)cyclopropyl)piperidin-1-yl)benzamide]
603	53	No IP	3			COc1cccc([C@](O)(C(=O)N(C)CCCC2CCN(c3ccc(C(=O)N(C)C)c(Cl)n3)CC2)C(F)(F)F)c1 [Example 1-27, (S)-2-chloro-N,N-dimethyl-6-(4-(3-(3,3,3-trifluoro-2-hydroxy-2-(3-methoxyphenyl)-N-methylpropanamido)propyl)piperidin-1-yl)nicotinamide]
412	37	No IP	0			COc1cccc([C@]2(C(=O)N(C)CCCC3CCN(c4ccc(C(=O)N(C)C)c(Cl)n4)CC3)CCCO2)c1 [Example 1-46, (S)-2-chloro-6-(4-(3-(2-(3-methoxyphenyl)-N-methyltetrahydrofuran-2-carboxamido)propyl)piperidin-1-yl)-N,N-dimethylnicotinamide]
266	46	No IP	0			CN(C)C(=O)c1ccc(N2CCC(F)(CCCN(C)C(=O)[C@](O)(c3ccccc3)C(F)(F)F)CC2)nc1Cl [Example 12-4, (R)-2-chloro-6-(4-fluoro-4-(3-(3,3,3-trifluoro-2-hydroxy-N-methyl-2-phenylpropanamido)propyl)piperidin-1-yl)-N,N-dimethylnicotinamide]
24	61	No IP	0			COc1cccc([C@@](O)(C(=O)N(C)CCCC2CCN(c3ccc(C(=O)N(C)C(C)C)c(Cl)n3)CC2)C(F)(F)F)c1 [Example 2-4, (R)-2-chloro-N-isopropyl-N-methyl-6-(4-(3-(3,3,3-trifluoro-2-hydroxy-2-(3-methoxyphenyl)-N-methylpropanamido)propyl)piperidin-1-yl)nicotinamide]
109	52		25	775		COc1cccc([C@@](O)(C(=O)N(C)CC[C@H]2CC23CCN(c2ccc(C(=O)NC4CC4)c(Cl)c2)CC3)C(F)(F)F)c1 [Example 7-9, 2-chloro-N-cyclopropyl-4-((R)-1-(2-((R)-3,3,3-trifluoro-2-hydroxy-2-(3-methoxyphenyl)-N-methylpropanamido)ethyl)-6-azaspiro[2.5]octan-6-yl)benzamide]
82	56		33	1270		CNC(=O)c1ccc(N2CCC3(CC2)C[C@@H]3CCN(C)C(=O)[C@](O)(c2cccc(OC)c2)C(F)(F)F)cc1Cl [Example 7-8, 2-chloro-N-methyl-4-((R)-1-(2-((R)-3,3,3-trifluoro-2-hydroxy-2-(3-methoxyphenyl)-N-methylpropanamido)ethyl)-6-azaspiro[2.5]octan-6-yl)benzamide]
134	87	No IP	19			COc1cccc([C@@](O)(C(=O)NC[C@@H](C)CC2CCN(c3ccc(C(=O)N(C)C)c(Cl)n3)CC2)C(F)(F)F)c1 [Example 3-4, 2-chloro-N,N-dimethyl-6-(4-((S)-2-methyl-3-((R)-3,3,3-trifluoro-2-hydroxy-2-(3-methoxyphenyl)propanamido)propyl)piperidin 1-yl)nicotinamide]
523	47	No IP	0			COc1cccc([C@@](O)(C(=O)N(C)CCCC2CCN(c3ccc(C(=O)N(C)C)c(OC)n3)CC2)C(F)(F)F)c1 [Example 2-18, (R)-2-methoxy-N,N-dimethyl-6-(4-(3-(3,3,3-trifluoro-2-hydroxy-2-(3-methoxyphenyl)-N-methylpropanamido)propyl)piperidin-1-yl)nicotinamide]
379	25	No IP	0			COc1cccc([C@@](O)(C(=O)N[C@@H](C)CCC2CCN(c3ccc(C(=O)N(C)C)c(Cl)n3)CC2)C(F)(F)F)c1 [Example 6-1, 2-chloro-N,N-dimethyl-6-(4-((S)-3-((R)-3,3,3-trifluoro-2-hydroxy-2-(3-methoxyphenyl)propanamido)butyl)piperidin-1-yl)nicotinamide]
567	53		34	11100		CN(C)C(=O)c1ccc(N2CCC(CCCN(C)C(=O)[C@@](O)(c3cccc(OC(F)(F)F)c3)C(F)(F)F)CC2)nc1Cl [Example 1-39, (S)-2-chloro-N,N-dimethyl-6-(4-(3-(3,3,3-trifluoro-2-hydroxy-N-methyl-2-(3-(trifluoromethoxy)phenyl)propanamido)propyl)piperidin-1-yl)nicotinamide]
435	46	No IP	0			CN(C)C(=O)c1ccc(N2CCC3(CC2)CC3CCCNC(=O)[C@](O)(c2ccccc2)C(F)(F)F)cc1Cl (stereo partly drawn) [Example 7-35, 2-chloro-N,N-dimethyl-4-(1-(3-((R)-3,3,3-trifluoro-2-hydroxy-2-phenylpropanamido)propyl)-6-azaspiro[2.5]octan-6-yl)benzamide]
45			14	1580	59	CN(C)C(=O)c1ccc(N2CCC(CCCN(C)C(=O)C(O)(c3ccccc3)C(F)(F)F)CC2)cc1Cl (single isomer, unassigned) [Example 4-4, 2-chloro-N,N-dimethyl-4-(4-(3-(3,3,3-trifluoro-2-hydroxy-N-methyl-2-phenylpropanamido)propyl)piperidin-1-yl)benzamide]
100	56	No IP	11			COc1cccc([C@@]2(C(=O)N(C)CCCC3CCN(c4ccc(C(=O)N(C)C)c(Cl)n4)CC3)CCCO2)c1 [Example 1-47, (R)-2-chloro-6-(4-(3-(2-(3-methoxyphenyl)-N-methyltetrahydrofuran-2-carboxamido)propyl)piperidin-1-yl)-N,N-dimethylnicotinamide]
